# Reference: patent US7527971B2, “Adult stem cell lines” (Vitro Diagnostics, Inc., priority 2004, dated 2009)
# Ends that are not written are not given here.
# Tests used:
# [1] = tested on: VIT1 cells; experiment: Induction of ILCC, insulin and Ep-CAM in VIT1 cells by GLP-1 (IHC); type: cell-based, human
# Method: VIT1 cells were cultured and expanded through multiple passages as described in Example 2, “Cell Growth Analysis”. The culture medium used for expansion was VitroPlus II, (Vitro Diagnostics, Inc, Catalog Number VC03014) containing 10 nM GLP-1 (1-37) (Bachem, Catalog Number H-5552). Different cultures were expanded for 11 to 20 days encompassing two to five passages prior to immunohistochemical determination of insulin or Ep-CAM. A negative control culture that was expanded in VitroPlus II without added GLP-1 through 6 passages (24 days) prior to IHC determination of insulin. Insulin and Ep-CAM presence within these cultures was determined by fixation of the cultured cells in 1% glutaraldehyde, overnight incubation with insulin MAB (Sigma Chemical Co, Catalog Number I2018) at 1/1000 dilution in PBS or Ep-CAM, (Epithelial Specific Antigen) MAB (Biogenesis, Catalog Number 4240-4009) at 1/200 dilution in PBS followed by washout and incubation with an HRP-conjugated secondary antibody (Goat-anti-mouse-HRP (Jackson ImmunoResearch Laboratories, Inc., Catalog Number 115-035-062) at 37° C. for 30 minutes. Following washout of the secondary antibody, the fixed cells were then incubated for 15 minutes in diaminobenzidine (Sigma Chemical Co, Catalog Number D-4293), and the stained cultures were examined by phase-contrast microscopy and photographed. […]
# [2] = tested on: VIT4-G9 cells; experiment: Insulin secretion from VIT4-G9 cultures after growth/differentiation conditions; type: cell-based, human
# Method: ILCC were examined to determine the level of insulin content and its secretion by use an immunoassay specific to human insulin (Linco Research, Catalog Number EZHI-14K). Since the growth medium contains recombinant human insulin, tissues were extensively washed with PBS prior to determination of secretion. ILCC were acutely maintained in a physiological saline solution (140 mM NaCl, 5 mM KCl, 5 mM CaCl2, 0.5% BSA, 1 mM sodium pyruvate, 2 mM glucose, and 10 mM HEPES, pH 7.4). […] The control solution contained 2 mM glucose, the elevated glucose solution was identical but contained 20 mM glucose, and the elevated K^+ solution contained 50 mM K^+, while the other constituents were identical to the control solution. The physiological saline solution was collected following centrifugation (10 minutes at 470×g) and frozen at −20° C. for later analysis. The remaining ILCC were lyzed in 10 mM Tris, 1 mM EDTA and 10% glycerol; the pellet was extracted overnight at 4° C. in 70% ethanol, 0.18 mM HCl and the extract was dried using Model DNA 110 Speed Vac (Savant, Inc.). The dried extract was reconstituted in 100 μl PBS prior to assay for insulin content. […] For example, glucose-stimulated insulin secretion requires expression of functional glucose transporter protein and glucokinase in addition to insulin. […]
# [3] = tested on: VIT4-G9 cells; experiment: Effect of nicotinamide on prevalence of ILCC in VIT4-G9 cultures; type: cell-based, human; settings: 10 mM nicotinamide
# Excerpt: A general principle of developmental cell biology is that cellular differentiation and growth are at least partially exclusive of each other. High rates of cellular proliferation usually occur in the absence of differentiation, while differentiation usually requires quiescence or low rates of cell proliferation. Initial observations of the clonal cell line VIT4-G9 were consistent with this concept since pancreatic hormone-containing ILCC only appeared at later stages of culture following slower cell growth as a consequence of confluence and possibly contact inhibition.
# [4] = tested on: VIT1 cells; experiment: IHC analysis of insulin or Ep-CAM positive cells in VIT1 culture exposed to nicotinamide; type: cell-based, human; settings: 10 mM nicotinamide, 5-day exposure
# [5] = tested on: primary cultures of dispersed human pancreatic cells; experiment: Effect of HGF on ILCC growth and morphology in primary cultures; type: cell-based
# Method: The effects of hepatocyte growth factor (HGF; PeproTech, Inc. Catalog Number 100-39) were determined by addition to the growth medium described above at a final concentration of 30 ng/ml. […] The acute effects of HGF on ILCC growth and morphology were determined and longer-term experiments were conducted as follows. The sample consisted of a cryopreserved, non-settled fraction of cells resulting from sub-culture of ILCC from the first passage of the culture of human pancreatic dispersed cells prepared as described above. The frozen cells were rapidly thawed, cryopreservative was washed out and the cells were plated at 10,000/cm^2 during the second passage. Cultures were exposed to 30 ng/ml HGF or control medium without added HGF and the cultures were expanded through 4 passages. Thereafter, both the control and HGF cultures were maintained and expanded through 8 passages using growth medium without added HGF. The number of ILCC in these cultures was determined by microscopic inspection.
# To determine if ILCC cultures were affected by environmental conditions, the effect of HGF exposure was determined as described above (See: Methods). HGF is known to be mitogenic to beta cells, increases beta cell mass and total insulin production in vivo (Gracia-Ocana, et. al, 2000). HGF is also a known survival factor for a variety of cells (Dai, et. al, 2003). […]
compound,measurement,setting,value
"glucagon-like peptide 1 (HAEGTFTSDVSSYLEGQAAKEFIAWLVKGR; ends and bridges not checked; UniProt P01275 98-127, looked up) [GLP-1, GLP-1 (1-37) (Bachem, Catalog Number H-5552)]",Ep-CAM expression by IHC,[1]; 10 nM GLP-1,induced
same,Reduction of ILCC frequency in negative control culture lacking GLP-1,[1]; 10 nM GLP-1 in VitroPlus II versus no GLP-1,thousand-fold
same,Glucose-stimulated insulin secretion: requirement during growth phase,"[2]; GLP-1 in VitroPlus II, 5 days",necessary
NC(=O)c1cccnc1 [nicotinamide],Increase in prevalence of ILCC,[3],about 5 fold
same,Number of insulin or Ep-CAM positive cells by IHC,[4],did not appear to change
same,Glucose-stimulated insulin secretion: requirement in differentiation phase,"[2]; 10 mM nicotinamide in 0.5% FBS VitroPlus II, 6 days",necessary
hepatocyte growth factor [HGF],Increase in number of ILCC,"[5]; 30 ng/ml HGF during passages 2 through 4, counted at early pass 7",~5 fold
same,Morphology of ILCC,"[5]; 30 ng/ml HGF, short time of exposure, reversed when HGF removed","shift in the morphology of ILCC from larger islets containing small cells to more loosely attached, smaller islets composed of larger cells"
